From patent US10183047B2, “Chromium-containing compositions in combination with Phyllanthus emblica and shilajit having synergistic effects for improving endothelial function and cardiovascular health” (Natreon, Inc., priority 2014, dated 2019)

Assays:
Assay type in all cases: in vivo, human
[1] = Blood pressure, metabolic syndrome subjects; details: metabolic syndrome subjects (Example 4), chromium products 400 mcg; for Diastolic blood pressure Post Tt / Systolic blood pressure Post Tt: after 12 weeks of treatment; for Diastolic blood pressure Pre Tt / Systolic blood pressure Pre Tt: pre-treatment
Excerpt: (§1) Patients included in the study, were of either gender, aged 30-68 years, having endothelial dysfunction defined as ≤6% change in reflection index (RI) on post salbutamol challenge test and central obesity as defined by The International Diabetes Federation guidelines, dated 2006, and any two of the following conditions:
After screening, all the eligible subjects were randomized to receive either one of the three treatments orally for duration of 12 weeks: group 1—one capsule of Crominex®3+ 200 mcg once daily; group 2—one capsule 400 mcg once daily; group 3—one capsule of Placebo once daily.
(§2) Subjects were reviewed for follow up at 4 weeks, 8 and 12 weeks of therapy. At each visit they were evaluated for efficacy and safety. Pharmacodynamic evaluation for endothelial function was conducted at baseline and end of treatment. Blood samples were collected for evaluation of biomarkers before and at end of treatment. Safety lab investigations for hematological, hepatic and renal biochemical parameters were conducted before and at the end of the study and also as and when required (in case of any adverse drug reaction (ADR)). Subjects were enquired for the presence of ADR and the same was recorded in the case report form. Compliance to therapy was assessed by pill count method.
(§3) When the results with Crominex® 3+ in the above two examples were highly significant, especially with the 400 mcg once daily dose in type 2 diabetics, two more clinical studies (EXAMPLES 3 & 4) were conducted at the same institute, following the same methodology as described earlier, on the individual components of Crominex® 3+, i.e., chromium chloride and Phyllanthus emblica+Shilajit, and other chromium supplements available in the market, i.e., chromium picolinate, chromium polynicotinate and chromium dinicocysteinate, in type 2 diabetics as well as in subjects with metabolic syndrome symptoms.

[2] = system: high sensitivity C-reactive protein (hsCRP); experiment: hsCRP by ELISA, metabolic syndrome subjects; parameters: hsCRP Pre Tt / hsCRP Post Tt: unit not given here; details: for hsCRP: MS, 400 mcg; for Mean percentage change in hsCRP / hsCRP Post Tt / hsCRP Pre Tt: metabolic syndrome subjects (Example 4), chromium products 400 mcg; for Mean percentage change in hsCRP: after 12 weeks treatment; for hsCRP Post Tt: after 12 weeks of treatment; for hsCRP Pre Tt: pre-treatment
Experimental: Nitric oxide, MDA, Glutathione and levels were estimated spectrophotometrically as follows. Malondialdehyde (MDA) levels were determined as described in Vidyasagar, et al., “Oxidative stress and antioxidant status in acute organophosphorous insecticide poisoning,” Indian J. Pharmacol. (April 2004) 36(2): 76-79. Glutathione levels were determined as described in G. L. Ellman, Arch. Biochem. Biophys. (1959) 82: 70-77 (original determination). Nitric oxide levels were estimated spectrophotometrically as described in Miranda, et al., “A Rapid, Simple Spectrophotometric Method for Simultaneous Detection of Nitrate and Nitrite,” NITRIC OXIDE: Biology and Chemistry (2001) Vol. 5, No. 1, pp. 62-71. hsCRP (high sensitivity C-reactive protein) was determined by ELISA method.
as §1, with “conditions: […]” for “conditions:”
as §2
(§4) Assessment of endothelial function, biomarkers, safety parameters and primary and secondary efficacy parameters and data analysis were performed as described under the study with type 2 diabetic subjects in Example 1.
as §3

[3] = system: lipid profile; experiment: Lipid profile (TC, HDL-C, LDL-C, TG), metabolic syndrome subjects; details: for HDL / LDL / TC / TG: MS; for HDL / LDL / TC / TG / LDL-C, mean percentage change: 400 mcg; for HDL-C Post Tt / LDL-C Post Tt / Mean percentage change in HDL-C / Mean percentage change in Total Cholesterol / Mean percentage change in Triglycerides / Total Cholesterol Post Tt / Triglycerides Post Tt / HDL-C Pre Tt / LDL-C Pre Tt / Total Cholesterol Pre Tt / Triglycerides Pre Tt: metabolic syndrome subjects (Example 4), chromium products 400 mcg; for HDL-C Post Tt / LDL-C Post Tt / Mean percentage change in HDL-C / Mean percentage change in Total Cholesterol / Mean percentage change in Triglycerides / Total Cholesterol Post Tt / Triglycerides Post Tt: after 12 weeks of treatment; for HDL-C Pre Tt / LDL-C Pre Tt / Total Cholesterol Pre Tt / Triglycerides Pre Tt: pre-treatment; for LDL-C, mean percentage change: mean percentage change after 12 weeks of treatment, Example 4
Excerpt: All the subjects had undergone complete physical examination, safety lab evaluations at baseline and at the end of the treatment. Samples were collected after an overnight fast of 12 hrs after the last dose of medication for determination of hemoglobin, glycosylated hemoglobin (HbA1c), blood urea, serum creatinine, liver function, lipid profile (Total cholesterol, High density lipoprotein cholesterol (HDL-C), low density lipoprotein cholesterol (LDL-C) using appropriate standard techniques.
as §1, with “conditions: […]” for “conditions:”
as §2, §4, §3

| Molecule | Diastolic blood pressure Post Tt [1] [NS mmHg] | Systolic blood pressure Post Tt [1] [NS mmHg] | Diastolic blood pressure Pre Tt [1] [mmHg] | Systolic blood pressure Pre Tt [1] [mmHg] | hsCRP [2] [%] | Mean percentage change in hsCRP [2] [%] | HDL [3] [%] | LDL [3] [%] | TC [3] [%] | TG [3] [%] | HDL-C Post Tt [3] | LDL-C Post Tt [3] | Mean percentage change in HDL-C [3] [%] | Mean percentage change in Total Cholesterol [3] [%] | Mean percentage change in Triglycerides [3] [%] | Total Cholesterol Post Tt [3] | Triglycerides Post Tt [3] [mg/dL] | HDL-C Pre Tt [3] [mg/dL] | LDL-C Pre Tt [3] [mg/dL] | Total Cholesterol Pre Tt [3] [mg/dL] | also measured |
| --- | --- | --- | --- | --- | --- | --- | --- | --- | --- | --- | --- | --- | --- | --- | --- | --- | --- | --- | --- | --- | --- |
| O.O.O.O.O.O.[Cl][Cr]([Cl])[Cl] [Chromium chloride, Chromium chloride (CrCl3.6H2O)] | 79.8 ± 2.66 | 122.9 ± 3.42 | 80.6 ± 2.67 | 124.7 ± 3.35 | −11 | −10.99 ± 3.29 | −1.08 | 0.79 | 0.49 | 0.92 | 36.79 ± 5.14 NS mg/dl | 117.37 ± 9.13 NS mg/dl | −1.08 ± 3.45 | 0.49 ± 1.30 | 0.92 ± 1.43 | 189.21 ± 10.80 NS mg/dl | 175.26 ± 9.70 | 37.21 ± 5.16 | 116.42 ± 9.75 | 188.37 ± 11.78 | Triglycerides Pre Tt [3]: 173.68 ± 9.70 mg/dL |
| chromium dinicocysteinate | 78.8 ± 2.67 | 122.0 ± 2.66 | 80.0 ± 2.99 | 124.8 ± 3.37 | −13.76 | −13.76 ± 4.64 | −0.71 | 2.11 | 1.4 | 1.04 | 36.61 ± 5.67 NS mg/dl | 113.64 ± 14.96 mg/dL | −0.71 ± 3.95 | 1.40 ± 1.03 | 1.04 ± 1.06 | 184.50 ± 12.49 mg/dL | 171.22 ± 6.92 | 36.83 ± 5.22 | 111.22 ± 14.34 | 181.94 ± 12.10 | hsCRP Post Tt [2]: 2.24 ± 0.49; hsCRP Pre Tt [2]: 2.58 ± 0.48; LDL-C, mean percentage change [3]: 2.11%; Triglycerides Pre Tt [3]: 169.44 ± 6.24 mg/dL |
| chromium picolinate | 78.1 ± 2.26 | 121.5 ± 4.15 | 79.2 ± 3.58 | 123.1 ± 5.39 | −19.45 | −19.45 ± 2.98 | 2.1 | −2.19 | −1.18 | −1.07 | 37.84 ± 4.45@ mg/dl | 111.55 ± 12.58 mg/dL | 2.10 ± 2.84 | −1.18 ± 0.90 | −1.07 ± 1.20 | 182.84 ± 12.60 mg/dL | 167.26 ± 10.71 | 37.11 ± 4.32 | 114.13 ± 12.80 | 185.05 ± 13.03 | hsCRP Post Tt [2]: 2.15 ± 0.40; hsCRP Pre Tt [2]: 2.67 ± 0.44; LDL-C, mean percentage change [3]: -2.19%; Triglycerides Pre Tt [3]: 169.11 ± 11.02 mg/dL |
| chromium polynicotinate | 79.7 ± 2.85 | 124.1 ± 4.88 | 81.2 ± 3.07 | 125.9 ± 5.17 | −12.34 | −12.34 ± 2.16 | −1.55 | 1.86 | 0.95 | 0.83 | 36.20 ± 5.15 NS mg/dl | 111.95 ± 12.95 mg/dL | −1.55 ± 4.17 | 0.95 ± 1.33 | 0.83 ± 1.22 | 182.75 ± 14.03 mg/dL | 173.00 ± 9.33 | 36.85 ± 5.48 | 109.88 ± 12.76 | 181.05 ± 13.98 | hsCRP Post Tt [2]: 2.42 ± 0.54; hsCRP Pre Tt [2]: 2.76 ± 0.58; LDL-C, mean percentage change [3]: 1.86%; Triglycerides Pre Tt [3]: 171.60 ± 9.43 mg/dL |
